The target in one data set is T1, recombinant perforin (Mus musculus, UniProt P10820).
T1 sequence (P10820 21-554): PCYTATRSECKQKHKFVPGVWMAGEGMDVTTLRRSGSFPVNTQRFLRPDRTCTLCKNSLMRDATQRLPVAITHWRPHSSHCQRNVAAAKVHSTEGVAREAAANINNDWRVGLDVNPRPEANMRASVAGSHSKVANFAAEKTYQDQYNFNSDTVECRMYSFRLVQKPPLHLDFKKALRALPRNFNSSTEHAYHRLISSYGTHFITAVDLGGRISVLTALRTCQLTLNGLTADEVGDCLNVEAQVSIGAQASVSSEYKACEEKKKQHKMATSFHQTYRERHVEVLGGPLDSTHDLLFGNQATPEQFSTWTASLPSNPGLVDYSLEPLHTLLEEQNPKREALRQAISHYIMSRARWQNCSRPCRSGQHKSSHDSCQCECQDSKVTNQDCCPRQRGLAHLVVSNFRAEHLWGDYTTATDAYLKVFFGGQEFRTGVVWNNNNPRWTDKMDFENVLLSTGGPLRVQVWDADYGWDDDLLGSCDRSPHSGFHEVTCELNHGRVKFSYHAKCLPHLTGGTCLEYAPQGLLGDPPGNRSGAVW
The data set is described as follows: Inhibition of perforin-mediated lysis of Jurkat cells (51Cr release). The settings on record: isolated perforin.

A short description of a further data set: Solubility in water. The settings on record: for solubility: water.
For data set [1], the system named is perforin delivered by KHYG-1 NK cells. The data set is described as follows: KHYG-1 cytotoxicity assay: lysis of K562 target cells by KHYG-1 NK cells (51Cr release). In kind it is cell-based, human. How it is done:
The compounds were then evaluated for their ability to block the effect of perforin delivered by whole KHYG-1 NK cells (Table 2). Employing whole NK cells is a more rigorous model of conditions in vivo than the use of isolated recombinant protein since effector cell identification of the labelled target cell and formation of an immune synapse are required for perforin release. […] After co-incubation of inhibitor with KHYG-1 NK cells in medium for 30 min at room temperature, ^51Cr-labelled K562 leukaemia target cells were added and cell lysis evaluated after 4 h incubation at 37 °C by measuring ^51Cr release. […] Viable and dead cells were counted and percent viability calculated based on total cell count (for further details see Supplementary data). […] For the purposes of this work, compounds are classified as toxic if NK cell viability falls below 70%. This is due to the importance of CTLs and NK cells in the overall immunological response which means that it is essential that any pharmacological intervention allows rapid recovery of these cytotoxic effector cells for normal immunological function.
KHYG-1 cells were washed and re-suspended in RPMI + 0.1% BSA at 4 × 10^5 cells/mL, and an amount of 50 μL of KHYG-1 cells was dispensed to each well of a 96-well V-bottom plate. RPMI (50 μL) + 0.1% BSA or 10% (final concentration) of serum was added to each well. Then test compounds were added to KHYG-1 cells at various concentrations up to 20 μM and incubated at room temperature for […]. 1 × 10^6 K562 target cells were labelled with 75 μCi ^51Cr in 200 μL of RPMI for 90 min at 37 °C. Cells were washed as described above and re-suspended in 5 mL of RPMI + 0.1% BSA. An amount of 50 μL of ^51Cr labelled K562 leukaemia target cells was added to each well of the KHYG-1 plate (effector/target 2:1) and incubated at 37 °C for 4 h. ^51Cr release was assayed using a Skatron harvesting press and radioactivity estimated on a Wallac Wizard 1470 automatic γ counter (Turku, Finland). The percentage of specific cytotoxicity was calculated using the following formula:
% specific lysis = […]
(maximum release - spontaneous release)
and expressed as the mean of triplicate assays ± standard error of the mean.

Data set [2] can be described thus: Plasma stability, mouse plasma. In kind it is in vitro ADME. The settings on record: % parent remaining at 24 h, 37 °C. How it is done:
(§1) Preliminary stability studies were carried out by incubation in human or mouse plasma at 37 °C with the percentage parent remaining measured at 24 h (Table 2). […] In mouse plasma the ratio of open to closed is 50:50%, while in human plasma this shifts to 90:10 due to the strong affinity of human serum albumin for the ring-opened form.[20] It is likely that the same phenomenon is operating in the present case and while not necessarily an issue for mouse studies, will need to be addressed in future work.
(§2) Incubation method - Mouse (CD-1, male) and human (pooled) plasma pH was adjusted to 7.4 with either 1M phosphoric acid or sodium hydroxide. Plasma was spiked with 100 uM of test compounds and divided into two parts; one part was immediately transferred to -80 °C (control), and the second part was incubated at 37 °C at 24 h.
(§3) At the end of the study duration, samples were transferred to -80 °C until ready to analyse by HPLC-DAD. On the day of analysis, control and incubated samples were thawed on wet ice and mixed.
(§4) Sample treatment for HPLC - 20 uL of samples were mixed with 80 uL (1:4 v/v) ice cold acetonitrile to precipitate the plasma proteins, centrifuged at 13,000 rpm for 5 min to obtain the clear supernatant. The supernatant was diluted with 0.01% formic acid– water (1:2 v/v) and 50 uL was injected onto the HPLC system (Agilent).
(§5) Calculation: The % loss was calculated based on peak area using the following formula: (peak area time “0”- peak area time “24h”)/peak area time “0” multiplied by 100. % Remaining = 100 - % loss.

Data set [3] can be described thus: Plasma stability, human plasma. In kind it is in vitro ADME. As to conditions: % parent remaining at 24 h, 37 °C. As for the experimental part:
as §1, §2, §3, §4, §5

In brackets after ≈: the same amount, converted by molar mass.

Description for recombinant perforin: The ability of the compounds to inhibit the lysis of nucleated (Jurkat T lymphoma) cells in the presence of 0.1% BSA, as measured by release of ^51Cr was measured. Jurkat target cells were labelled by incubation in medium with 100 µCi ^51Cr for one hour. The cells were then washed three times to remove unincorporated isotope and re-suspended at 1 x 10^5 cells per mL in RPMI buffer supplemented with 0.1% BSA. Each test compound was pre-incubated to concentrations of 20, 10, 5, 2.5 and 1.25 µM with recombinant perforin for 30 min with DMSO as a negative control. ^51Cr labelled Jurkat cells were then added and cells were incubated at 37 °C for 4 h. The supernatant was collected and assessed for its radioactive content on a gamma counter (Wallac Wizard 1470 automatic gamma counter). Each data point was performed in triplicate and an IC50 was calculated from the range of concentrations described to above.

`O=C1OCc2cc(-c3ccc(-c4ccccc4)s3)ccc21` [Compound 6]: the melting point (as a rule, the temperature of the solid-liquid transition) lay within 231 to 233 °C.

On to `Cc1ccccc1-c1ccc(-c2ccc3c(c2)COC3=O)s1` [Compound 7], for which the melting point lay in the range of 109 to 111 °C.

As for `Cc1cccc(-c2ccc(-c3ccc4c(c3)COC4=O)s2)c1` [Compound 8], the melting point was in the range of 192 to 194 °C.

On to `Cc1ccc(-c2ccc(-c3ccc4c(c3)COC4=O)s2)cc1` [Compound 9], for which the melting point fell in the range of 184 to 186 °C.

`O=C1OCc2cc(-c3ccc(-c4ccccc4Cl)s3)ccc21` [Compound 10] came in with a melting point of 131 to 133 °C.

In turn, `O=C1OCc2cc(-c3ccc(-c4cccc(Cl)c4)s3)ccc21` [Compound 11] gave a melting point of 207 to 209 °C.

In turn, `O=C1OCc2cc(-c3ccc(-c4ccc(Cl)cc4)s3)ccc21` [Compound 12] had a melting point of 231 to 234 °C.

`COc1ccccc1-c1ccc(-c2ccc3c(c2)COC3=O)s1` [Compound 13] came in with a melting point of 190 to 192 °C. For the same molecule, the “Inhibition of perforin lytic activity in Jurkat assay (in words)” value (“Inhibition of perforin lytic activity” below) on recombinant perforin is “no detectable inhibition”.

Molecule `COc1cccc(-c2ccc(-c3ccc4c(c3)COC4=O)s2)c1` [Compound 14] had a melting point of 165 to 167 °C. In addition, the “Inhibition of perforin lytic activity” value at recombinant perforin is given as “no detectable inhibition”.

`COc1ccc(-c2ccc(-c3ccc4c(c3)COC4=O)s2)cc1` [Compound 15]: the melting point lay within 224 to 227 °C.

For the molecule `O=C1OCc2cc(-c3ccc(-c4cccc(O)c4)s3)ccc21` [Compound 18], the melting point lay within 276 to 279 °C.

`O=C1OCc2cc(-c3ccc(-c4ccc(O)cc4)s3)ccc21` [Compound 19] returned a melting point of 279 to 282 °C. On recombinant perforin, the “Inhibition of perforin lytic activity” value is listed as “loses all activity”.

In turn, `N#Cc1cccc(-c2ccc(-c3ccc4c(c3)COC4=O)s2)c1` [Compound 20] came in with a melting point of 250 to 251 °C. Besides, the “Inhibition of perforin lytic activity” value at recombinant perforin is “activity is lost altogether”.

Molecule `NC(=O)c1cccc(-c2ccc(-c3ccc4c(c3)COC4=O)s2)c1` [Compound 22] registered a melting point of 259 to 263 °C.

Consider `NC(=O)c1ccc(-c2ccc(-c3ccc4c(c3)CNC4=O)s2)cc1` [Compound 23a], for which the “Inhibition of perforin lytic activity” value at recombinant perforin is listed as “loss of activity”.

In turn, `CN1Cc2cc(-c3ccc(-c4ccc(C(N)=O)cc4)s3)ccc2C1=O` [Compound 23b] returned a melting point of 287 to 290 °C. Also, the “Inhibition of perforin lytic activity” value on recombinant perforin is “loss of activity”.

With `CNC(=O)c1ccc(-c2ccc(-c3ccc4c(c3)COC4=O)s2)cc1` [Compound 29], the melting point lay within 299 to 302 °C. Besides, on recombinant perforin, the “Inhibition of perforin lytic activity” value is “loss of efficacy”.

For the molecule `CN(C)C(=O)c1ccc(-c2ccc(-c3ccc4c(c3)COC4=O)s2)cc1` [Compound 30], the melting point was 290 to 292 °C. Besides, at recombinant perforin, the “Inhibition of perforin lytic activity” value is “abolishes activity completely”.

For `CN1CCN(C(=O)c2ccc(-c3ccc(-c4ccc5c(c4)COC5=O)s3)cc2)CC1` [Compound 31], the “Inhibition of perforin lytic activity” value on recombinant perforin is reported as “abolishes activity completely”.

`CN(C)CCCNC(=O)c1ccc(-c2ccc(-c3ccc4c(c3)COC4=O)s2)cc1` [Compound 32]: the melting point fell in the range of 185 to 188 °C. The “Inhibition of perforin lytic activity” value on recombinant perforin was “poor activity or were inactive”.

`CCOC(=O)c1ccc(-c2ccc(-c3ccc4c(c3)COC4=O)s2)cc1O` [Compound 40] registered a melting point of 208 to 210 °C.

For the molecule `O=C(NCCN1CCOCC1)c1ccc(-c2ccc(-c3ccc4c(c3)COC4=O)s2)cc1O` [Compound 49], the “Inhibition of perforin lytic activity” value on recombinant perforin was “poor activity or were inactive”.

On to `CN(C)CCNC(=O)c1ccc(-c2ccc(-c3ccc4c(c3)COC4=O)s2)cc1O` [Compound 50], for which the melting point was in the range of 242 to 245 °C. In addition, the “Inhibition of perforin lytic activity” value at recombinant perforin is “poor activity or were inactive”.

In the case of `O=C(NCCO)c1ccc(-c2ccc(-c3ccc4c(c3)COC4=O)s2)cc1O` [Compound 51], the solubility (as a rule, the concentration that dissolves in the medium under given conditions) in the data set “Solubility in water” turned out to be 15.7 µg/mL (≈ 39.7 µM).

`CC(O)CNC(=O)c1ccc(-c2ccc(-c3ccc4c(c3)COC4=O)s2)cc1O` (stereo not drawn) [Compound 52] registered a melting point of 241 to 244 °C.

`NC(=O)CNC(=O)c1ccc(-c2ccc(-c3ccc4c(c3)COC4=O)s2)cc1O` [Compound 53] yielded a solubility in the data set “Solubility in water” of 4.7 µg/mL (≈ 11.5 µM).

On to `NC(=O)c1ccc(-c2ccc(-c3ccc4c(c3)COC4=O)s2)cc1N` [Compound 55], for which the solubility in “Solubility in water” was found to be 9.4 µg/mL (≈ 26.8 µM).

As to `Nc1cc(-c2ccc(-c3ccc4c(c3)COC4=O)s2)ccc1C(=O)NCCN1CCOCC1` [Compound 56], the melting point lay within 209 to 211 °C. The “Inhibition of perforin lytic activity” value at recombinant perforin is “poor activity or were inactive”.

`CN(C)CCNC(=O)c1ccc(-c2ccc(-c3ccc4c(c3)COC4=O)s2)cc1N` [Compound 57] had a melting point of 185 to 188 °C. For the same molecule, the “Inhibition of perforin lytic activity” value on recombinant perforin is “poor activity or were inactive”.

As to `CSc1ccc(-c2ccc(-c3ccc4c(c3)COC4=O)s2)cc1` [Compound 58], the melting point was in the range of 239 to 241 °C.

As to `CS(=O)(=O)c1ccc(-c2ccc(-c3ccc4c(c3)COC4=O)s2)cc1` [Compound 60], the melting point lay within 278 to 280 °C.

For the molecule `NS(=O)(=O)c1cccc(-c2ccc(-c3ccc4c(c3)COC4=O)s2)c1` [Compound 61], the melting point was in the range of 273 to 276 °C.

In turn, `CC(C)(C)NS(=O)(=O)c1ccc(-c2ccc(-c3ccc4c(c3)COC4=O)s2)cc1` [Compound 62] gave a melting point of 255 to 257 °C.

Turning to `CS(=O)(=O)Nc1ccc(-c2ccc(-c3ccc4c(c3)COC4=O)s2)cc1` [Compound 63], the “KHYG-1 inhibition (% at 20 μM)” value in data set [1] (compound 20 μM, perforin-induced lysis of K562 target cells co-incubated with KHYG-1 human NK cells, vs untreated control) is on record as “No activity”. In data set [1] (whole human NK cells, K562 targets), the “Activity against perforin delivered by whole KHYG-1 NK cells (in words)” value is “poor or no activity”. The “Plasma stability (% at 24 h) Mouse” value in data set [2] was found to be 80%. For the same molecule, in data set [3], the “Plasma stability (% at 24 h) Human” value stood at 70%.

In turn, `O=C1OCc2cc(-c3ccc(-c4ccncc4)s3)ccc21` [Compound 70] came in with a melting point of 260 to 261 °C.

With `O=C1OCc2cc(-c3ccc(-c4ccc5c(c4)COC5=O)s3)ccc21` [Compound 71], the “Solubility (in words)” value in the data set “Solubility in water” is recorded as “extremely insoluble”. The “Inhibition of perforin lytic activity” value on recombinant perforin is listed as “only moderately potent”.

The values are drawn from publication PMC4706532, “Diarylthiophenes as inhibitors of the pore-forming protein perforin” (Bioorganic & Medicinal Chemistry Letters, 2016).
